The values that follow come from US11478550B2, “Biodegradable hydrogel and methods for use thereof” (International Business Machines Corporation, priority 2018, dated 2022).

SMILES strings stand for the structures. Where two headings read alike, the source gives them in different places.

In series [1] the test system is Human multiple myeloma (MM.1S) cells. The series can be described thus: Cytotoxicity test (CellTiter 96 AQueous One). In kind it is cell-based. The settings on record: 48 h, alone or combined with the hydrogels (FIG. 2). The method, then:
Human multiple myeloma (MM.1S) cells were seeded at a density of 10×10^3 cells per well onto a 96 well plate and incubated overnight at 37° C. On the day of treatment, the medium was removed and 90 μl of RPMI was added to each well. Following this, 10 μL of the hydrogels or micelles-containing hydrogels were added to the cells. The plate was then incubated for another 48 h at 37° C. Reagents from the CellTiter 96® AQueous One Solution Cell Proliferation Assay Kit (Promega, USA) and RPMI were then mixed at a volume ratio of 1:4 and 100 μL of this mixture was then added to each well and the cells were left to incubate in the dark at 37° C. for 2 h. Untreated cells were then used as the control. Subsequently, the absorbance at 490 nm was measured and the readings were then expressed as a percentage of the cell viability of the control.

In series [2] the test system is refractory and/or relapsed MM. Conditions: single agent; cited from earlier work.
For series [3] the following is noted: cited from earlier work.

For the molecule `CC(C)C[C@H](NC(=O)[C@H](Cc1ccccc1)NC(=O)c1cnccn1)B(O)O` [BTZ, bortezomib], the “effect on cell viability” value in series [1] is given as “marked effect on cell viability”. In addition, the “1-year overall survival rate” value in series [2] is 80%. The “longer median time to progression compared to dexamethasone” value in series [2] is given as 78%. Moreover, the “time to reach mean maximum plasma concentration” value in series [3] (intravenous bolus) was 3 min; in series [3] (subcutaneous administration) it was 120 min.
